From patent US10189809B2, “SGC stimulators” (Ironwood Pharmaceuticals, Inc., priority 2010, dated 2019)
pEC50: −log10 of the molar value. Like-named read-outs stand apart in the source and are kept apart here.

Experiments:
[1] = molecular target: T1, soluble guanylate cyclase (sGC) (Homo sapiens (Human), UniProt Q02108+Q02153); experiment: sGC-HEK-cGMP assay run in the absence of SNP (HEK WC assay); format: cell-based; conditions: compound at 30 μM, absence of SNP
Procedure: (§1) Human embryonic kidney cells (HEK293), endogenously expressing soluble guanylate cyclase (sGC), were used to evaluate the activity of test compounds. Compounds stimulating the sGC receptor should cause an increase in the intracellular concentration of cGMP. HEK 293 cells were seeded in Dulbecco's Modification of Eagle's Medium supplemented with fetal bovine serum (10% final) and L-glutamine (2 mM final) in a 200 μL volume at a density of 1×10^5 cells/well in a poly-D-lysine coated 96 well flat bottom plate and grown overnight at 37° C. Medium was aspirated and cells were washed with 1× Hank's Buffered Saline Salt Solution (200 μL). Cells were then incubated for 15 minutes at 37° C. with 0.5 mM 3-isobutyl-1-methylxanthine (200 μL). Test article was then added to the assay mixture (2 μL) and incubated at 37° C. for 10 minutes. After the 10 minute incubation, the assay mixture was aspirated and 0.1M HCl (200 μL) was added to the cells. The plate was incubated at 4° C. for 30 minutes in the 0.1M HCl to stop the reaction and lysed the cells. The plates were then centrifuged at 1,200 g for 5 minutes at room temperature. Supernatants were collected and transferred to a new flat bottom 96 well plate for analysis. Vehicle controls were carried out using DMSO (1%). A known sGC stimulator, BAY 41-2272, was used as the positive control. Samples were diluted with an equal volume of 1 M Ammonium Acetate (pH 7) to neutralize samples for better chromatography. A 2× cGMP standard curve was prepared in 0.1 M HCl and then diluted with an equal volume of 1 M Ammonium Acetate, with the following final concentrations in nM: 1024, 512, 256, 128, 64, 32, 16, 8, 4, 2, 1. cGMP concentrations were determined from each sample using the LC/MS conditions (Table 2 below) and calculated standard curve. EC50 values were calculated from concentration-response curves generated with GraphPad Prism Software.

[2] = molecular target: T1, soluble guanylate cyclase (sGC); experiment: sGC-HEK-cGMP assay run with SNP incubation (HEK WC assay); format: cell-based; conditions: for HEK WC Assay (fold increase at 30 μM in the presence of 10 μM SNP): compound at 30 μM; for Emax at 10 µM: read-out: HEK WC Assay (% Emax at 10 μM/with 10 uM SNP); for Emax at 30 µM: read-out: HEK WC Assay (% Emax at 30 μM/with 10 uM SNP); for pEC50: in the presence of 10 uM SNP
Procedure: as §1, with “article and sodium nitroprusside were” for “article was”, “(2 μL each)” for “(2 μL)”, “(1%). […]” for “(1%). A known sGC stimulator, BAY 41-2272, was used as the positive control.”, “chromatography. […]” for “chromatography. A 2× cGMP standard curve was prepared in 0.1 M HCl and then diluted with an equal volume of 1 M Ammonium Acetate, with the following final concentrations in nM: 1024, 512, 256, 128, 64, 32, 16, 8, 4, 2, 1. cGMP concentrations were determined from each sample using the LC/MS conditions (Table 2 below) and calculated standard curve.”

[3] = read-out: HEK WC Assay (% Emax at 10 μM with 10 uM SNP)
[4] = read-out: HEK WC Assay (% Emax at 30 μM with 10 uM SNP)
[5] = read-out: HEK WC Assay (% Emax at 1 μM with 10 uM SNP)

T1 sequence (Q02153 whole entry): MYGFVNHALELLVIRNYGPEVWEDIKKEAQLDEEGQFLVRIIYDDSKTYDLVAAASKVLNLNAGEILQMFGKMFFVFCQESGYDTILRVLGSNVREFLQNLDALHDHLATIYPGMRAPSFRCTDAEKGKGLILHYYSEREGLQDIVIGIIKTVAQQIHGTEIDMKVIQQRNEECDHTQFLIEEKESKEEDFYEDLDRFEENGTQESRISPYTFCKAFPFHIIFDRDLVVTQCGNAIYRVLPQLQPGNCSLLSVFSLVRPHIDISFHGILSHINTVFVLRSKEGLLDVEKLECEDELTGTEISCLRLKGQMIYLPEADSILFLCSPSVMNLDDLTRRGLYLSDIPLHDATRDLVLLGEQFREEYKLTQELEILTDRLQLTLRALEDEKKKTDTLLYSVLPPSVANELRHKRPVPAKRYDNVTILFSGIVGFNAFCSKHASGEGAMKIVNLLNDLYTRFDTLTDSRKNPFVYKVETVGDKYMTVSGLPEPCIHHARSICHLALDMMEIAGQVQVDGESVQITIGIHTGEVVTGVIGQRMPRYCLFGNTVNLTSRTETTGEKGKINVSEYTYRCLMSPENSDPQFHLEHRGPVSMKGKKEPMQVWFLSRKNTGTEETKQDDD
T1 sequence (Q02108 whole entry): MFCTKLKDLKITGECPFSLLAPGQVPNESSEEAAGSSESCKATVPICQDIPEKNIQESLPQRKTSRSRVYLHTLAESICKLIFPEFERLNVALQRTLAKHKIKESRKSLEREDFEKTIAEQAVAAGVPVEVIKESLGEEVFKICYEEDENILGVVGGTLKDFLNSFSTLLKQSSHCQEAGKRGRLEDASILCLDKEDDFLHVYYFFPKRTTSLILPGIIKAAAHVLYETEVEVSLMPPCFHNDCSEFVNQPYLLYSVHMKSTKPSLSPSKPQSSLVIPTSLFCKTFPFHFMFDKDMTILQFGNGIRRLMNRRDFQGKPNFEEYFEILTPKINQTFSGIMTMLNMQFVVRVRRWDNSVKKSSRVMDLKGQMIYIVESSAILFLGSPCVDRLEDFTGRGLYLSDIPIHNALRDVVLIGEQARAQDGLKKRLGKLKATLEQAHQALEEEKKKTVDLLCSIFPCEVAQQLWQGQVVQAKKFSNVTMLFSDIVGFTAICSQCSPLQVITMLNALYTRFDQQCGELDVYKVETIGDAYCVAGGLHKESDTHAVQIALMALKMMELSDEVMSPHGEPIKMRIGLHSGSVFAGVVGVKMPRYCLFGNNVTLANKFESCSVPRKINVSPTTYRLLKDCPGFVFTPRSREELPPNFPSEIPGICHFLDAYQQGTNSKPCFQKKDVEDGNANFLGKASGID

| Compound | HEK WC Assay (fold increase at 30 μM in the absence of SNP) [1] | HEK WC Assay (fold increase at 30 μM in the presence of 10 μM SNP) [2] | Emax [2, 3] | Emax at 10 µM [2] | Emax [2, 4] | Emax at 30 µM [2] | pEC50 [2] | Emax [2, 5] |
| --- | --- | --- | --- | --- | --- | --- | --- | --- |
| CCOC(=O)c1cnc(-c2cc(-c3ccon3)n(Cc3ccccc3F)n2)nc1NCc1ccc(OC)cc1 [Compound I-134] | B (B = 1 to <2 fold increase) | B (B = 1 to <2 fold increase) | 0 to 10% | 20 to 40% | 0 to 10% | 40 to 60% |  |  |
| COc1ccc(CNc2nc(-c3cc(-c4ccon4)n(Cc4ccccc4F)n3)ncc2C(C)(C)O)cc1 [Compound I-135] | C (C = 2 to <5 fold increase) | D (D = 5 to <10 fold increase) | 10 to 20% | 0 to 10% | 10 to 20% | 0 to 10% |  |  |
| CC(=O)Nc1c(N)nc(-c2cc(-c3ccon3)n(Cc3ccccc3F)n2)nc1N [Compound I-141] | B (B = 1 to <2 fold increase) | C (C = 2 to <5 fold increase) | 0 to 10% |  | 0 to 10% |  |  |  |
| CNc1cnc(-c2cc(-c3ccon3)n(Cc3ccccc3F)n2)nc1N [Compound I-143] | C (C = 2 to <5 fold increase) | D (D = 5 to <10 fold increase) | 40 to 60% |  | 40 to 60% |  | 4.22 to 4.40 |  |
| Nc1cnc(-c2cc(-c3ncco3)n(Cc3ccccc3F)n2)nc1N [Compound I-149] | C (C = 2 to <5 fold increase) | D (D = 5 to <10 fold increase) | 60 to 80% |  | 80 to 100% |  | 4.40 to 4.70 |  |
| Nc1cc(O)nc(-c2cc(-c3ccon3)n(Cc3ccccc3F)n2)n1 [Compound I-154] | B (B = 1 to <2 fold increase) | B (B = 1 to <2 fold increase) | 0 to 10% |  | 10 to 20% |  |  |  |
| O=C(Nc1cnc(-c2cc(-c3ncco3)n(Cc3ccccc3F)n2)nc1O)c1ccccc1 [Compound I-159] | B (B = 1 to <2 fold increase) | D (D = 5 to <10 fold increase) | 20 to 40% |  | 20 to 40% |  |  |  |
| Oc1ccnc(-c2cc(-c3ccon3)n(Cc3ccccc3F)n2)n1 [Compound I-160, 2-(1-(2-fluorobenzyl)-5-(isoxazol-3-yl)-1H-pyrazol-3-yl)pyrimidin-4-ol] | C (C = 2 to <5 fold increase) | E (E = 10 to <20 fold increase) | 40 to 60% |  | 40 to 60% |  | > 4.70 | 10 to 20% |
| Oc1nc(-c2cc(-c3ccon3)n(Cc3ccccc3F)n2)ncc1-c1ccncc1 [Compound I-163] | C (C = 2 to <5 fold increase) | E (E = 10 to <20 fold increase) | 40 to 60% |  | 40 to 60% |  |  |  |
| CC(C)(C)OC(=O)Nc1cnc(-c2cc(-c3ccon3)n(Cc3ccccc3F)n2)nc1O [Compound I-164] | C (C = 2 to <5 fold increase) | E (E = 10 to <20 fold increase) | 20 to 40% |  | 20 to 40% |  |  |  |
| Nc1nc(-c2cc(-c3ccon3)n(Cc3ccccc3F)n2)ncc1NC(=O)CCCCl [Compound I-167] | D (D = 5 to <10 fold increase) | G (G = 30 to <40 fold increase) | 80 to 100% |  | 100 to 120% |  | > 4.70 | 60 to 80% |
| O=[N+]([O-])c1cnc(-c2cc(-c3ccon3)n(Cc3ccccc3F)n2)nc1O [Compound I-170] | B (B = 1 to <2 fold increase) | B (B = 1 to <2 fold increase) | 0 to 10% |  |  |  |  | 0 to 10% |
| Nc1nc(-c2cc(-c3ccon3)n(Cc3ccccc3F)n2)ncc1NC(=O)c1cccc(F)c1 [Compound I-171] | E (E = 10 to <20 fold increase) | E (E = 10 to <20 fold increase) | 100 to 120% |  | 80 to 100% |  | > 4.70 | 60 to 80% |
| COc1cnc(-c2cc(-c3ccon3)n(Cc3ccccc3F)n2)nc1N [Compound I-173] | C (C = 2 to <5 fold increase) | D (D = 5 to <10 fold increase) | 40 to 60% |  | 10 to 20% |  | 3.52 to 4.00 | 0 to 10% |
| Nc1nc(-c2cc(-c3ccon3)n(Cc3ccccc3F)n2)ncc1NC(=O)c1ccon1 [Compound I-175] | E (E = 10 to <20 fold increase) | E (E = 10 to <20 fold increase) | 80 to 100% |  | 100 to 120% |  | > 4.70 | 60 to 80% |
| Nc1nc(-c2cc(-c3ccon3)n(Cc3ccccc3F)n2)ncc1NC(=O)c1cccnc1 [Compound I-179] | E (E = 10 to <20 fold increase) | E (E = 10 to <20 fold increase) | 60 to 80% |  | 80 to 100% |  | > 4.70 | 40 to 60% |
| Nc1nc(-c2cc(-c3ccon3)n(Cc3ccccc3F)n2)ncc1NC(=O)c1cocn1 [Compound I-180] | D (D = 5 to <10 fold increase) | E (E = 10 to <20 fold increase) | 80 to 100% |  | 80 to 100% |  | > 4.70 | 40 to 60% |
| Cc1ccc(C(=O)Nc2cnc(-c3cc(-c4ccon4)n(Cc4ccccc4F)n3)nc2N)cc1 [Compound I-181] | E (E = 10 to <20 fold increase) | E (E = 10 to <20 fold increase) | 80 to 100% |  | > 120% |  | > 4.70 | 60 to 80% |
| Nc1nc(-c2cc(-c3ccon3)n(Cc3ccccc3F)n2)ncc1NC(=O)c1ccc(Cl)cc1 [Compound I-182] | E (E = 10 to <20 fold increase) | E (E = 10 to <20 fold increase) | 80 to 100% |  | 80 to 100% |  | > 4.70 | 60 to 80% |
| Cc1cccc(C(=O)Nc2cnc(-c3cc(-c4ccon4)n(Cc4ccccc4F)n3)nc2N)c1 [Compound I-183] | E (E = 10 to <20 fold increase) | D (D = 5 to <10 fold increase) | 100 to 120% |  | 80 to 100% |  | > 4.70 | 60 to 80% |
| Nc1nc(-c2cc(-c3ccon3)n(Cc3ccccc3F)n2)ncc1NC(=O)c1cccc(Cl)c1 [Compound I-187] | D (D = 5 to <10 fold increase) | F (F = 20 to <30 fold increase) | 60 to 80% |  | 60 to 80% |  | > 4.70 | 40 to 60% |
| CC(C)(C)C(=O)Nc1cnc(-c2cc(-c3ncco3)n(Cc3ccccc3F)n2)nc1N [Compound I-191] | C (C = 2 to <5 fold increase) | E (E = 10 to <20 fold increase) | 40 to 60% |  | 80 to 100% |  | > 4.70 | 20 to 40% |
